Data: paper PMC4008422, “Cytotoxicity and activation of the Wnt/beta-catenin pathway in mouse embryonic stem cells treated with four GSK3 inhibitors” (BMC Research Notes, 2014)
Like-named read-outs stand apart in the source and are kept apart here.

How the values were obtained:
Oct3/4 = assay: Immunofluorescence staining of Oct3/4 in ES-D3 cells; type: cell-based, mouse; details: three day treatment
Protocol: (§1) Immunofluorescence was performed according to standard procedures. ES cells were treated on 6-well plates with different GSK3 inhibitors and after 48 h 100,000 cells were re-seeded in each cavity of Matrigel-coated glass slides (Zellkontakt, Nörten-Hardenberg, Germany). After 24 h in medium the cells were fixed in 4% (w/v) paraformaldehyde for 45 min at 4°C. Subsequently, the cells were blocked for 20 min in PBS plus 0.2% Triton X-100, 6% BSA, and 1 mg/ml NaBH4. Primary and secondary antibodies were diluted in PBS with 0.1% Triton X-100 and 0.1% BSA. Primary antibodies were incubated on the slides for 2.5 h at room temperature (RT) or overnight at 4°C. Secondary antibodies were incubated on the slides for 1 h at RT. The following primary antibodies were used: anti-Oct3/4 (sc-5279, Santa Cruz Biotechnology, Heidelberg, Germany) and anti-Brachyury (AF2085, R&D Systems, Minneapolis, MN, USA). Secondary antibodies were obtained from Dianova (Hamburg, Germany). Finally, the slides were mounted with immunoselect antifading mounting medium containing DAPI (Dianova) to counterstain the nuclei. The stained cells were examined using an Olympus IX81 inverted microscope (Olympus, Hamburg, Germany).

Brachyury = assay: Immunofluorescence staining of Brachyury in ES-D3 cells; type: cell-based, mouse; details: for saturation of the concentration-response curve, Brachyury-positive cells: 0-10 μM CHIR-99021 or 0-2.5 μM CHIR-98014; for EC50: read-out: EC50 (Brachyury-positive cells)
Protocol: as §1, with “The following primary antibodies were used: anti-Oct3/4 (sc-5279, Santa Cruz Biotechnology, Heidelberg, Germany) and anti-Brachyury (AF2085, R&D Systems, Minneapolis, MN, USA).” left out

T gene = assay: qPCR gene expression of T in ES-D3 cells; type: cell-based, mouse; details: six day treatment, vs undifferentiated or randomly differentiated cells
Protocol: Total RNA was isolated from the cells using the RNeasy Kit (Qiagen, Hilden, Germany). Briefly, the cells were lysed in Qiazol (Qiagen), the hydrophilic phase was loaded onto RNA spin columns, and RNA was then prepared as instructed. cDNA synthesis was performed with random hexamer primers and 2 μg of the isolated total RNA following the manufacturer’s instructions. 10–20 ng of cDNA was then loaded in each well of a 384-well plate and specific primers were mixed with the GoTaq® PCR master mix according to the manufacturers’ instructions. Primer sequences were (5’-3’): T fw: […], rev: […], Nanog fw: […], rev: […], and Pou5f1 fw: […], rev: […]. Each qPCR amplification was performed in triplicates and the gathered data were normalized with qBasePlus (Biogazelle, Zwijnaarde, Belgium) against the housekeeping genes G6pdx, Tbp, and Tuba1a[10].

ES-CCE cells = assay: Cell viability assay (MTT), ES-CCE; type: cell-based, mouse; details: BIO 0.1-1 μM, others 1-10 μM, three days
Protocol: (§2) The medium was changed daily and the cells were passaged 2–3 times per week. […] A randomized control was performed with basal medium without growth factors and/or small molecules. Physiological activation of the Wnt/beta-catenin-pathway was tested in medium supplemented with 50 ng/ml Wnt3a.
(§3) The viability of the mouse ES cells was determined after exposure to different concentrations of GSK3 inhibitors for three days using the MTT assay. The decrease of MTT activity is a reliable metabolism-based test for quantifying cell viability; this decrease correlates with the loss of cell viability. 2,000 cells were seeded overnight on gelatine-coated 96-well plates in LIF-containing ES cell medium. […] Basal medium without GSK3 inhibitors or DMSO was used as control. All tested conditions were analyzed in triplicates.

Wnt/beta-catenin pathway [1] = assay: Wnt/beta-catenin TOPFlash dual luciferase reporter assay, ES-D3; type: cell-based, mouse; details: 48 and 72 h, vs control and 50 ng/ml Wnt3a
Protocol: (§4) The Wnt/beta-catenin reporter assay was performed with the M50 Super 8× TOPFlash and M51 Super 8× FOPFlash vector containing the firefly luciferase gene under the control of TCF/LEF binding sites (M50 Super 8x TOPFlash) or mutated bindings sites (M51 Super 8× FOPFlash). 12,500 cells were seeded overnight on gelatine-coated 96-well plates in LIF-containing ES cell medium. On the next day the cells were transfected using Lipofectamine (Life Technologies) with one of the aforementioned vectors plus pGL4.75 [hRluc/CMV] (Promega) encoding the renilla luciferase reporter gene hRluc as a transfection control. […] The Dual-Luciferase® reporter assay system (Promega) was employed 48 and 72 h after medium change to follow the luminescence reaction using a GloMax®-multi detection system (Promega).
(§5) To assess the activation of the Wnt/beta-catenin signaling pathway by GSK3i, a dual luciferase reporter assay was used (Figure 2A/B). Mouse ES cells were transfected with the M50 TOPflash firefly luciferase vector, comprising seven TCF/LEF binding sites or as a negative control with the M51 FOPflash vector harboring mutated binding sites. To normalize the transfection efficiency, a hRluc/CMV vector with a constitutive expression of the renilla luciferase was used. Mouse ES cells of both lines were incubated with GSK3 inhibitors with concentrations close to the IC50 values calculated for the ES-D3 cell line. Dual luciferase luminescence was measured 48 and 72 h after cultivation with one of the inhibitors.

ES-D3 cells = assay: Cell viability assay (MTT), ES-D3; type: cell-based, mouse; details: for viability reduced by: three days; for IC50: ES-D3 cells, three day treatment, medium devoid of LIF, reduced serum, read-out: IC50 (half maximal inhibitory concentration, cell viability)
Protocol: as §2, §3

Wnt/beta-catenin pathway [2] = assay: Wnt/beta-catenin TOPFlash dual luciferase reporter assay, ES-CCE; type: cell-based, mouse; details: 48 and 72 h, vs random controls and 50 ng/ml Wnt3a
Protocol: as §4, §5

GSK3 = details: cell-free system; cited from earlier work
[3] = ES-D3, 5 μM, three day treatment

Compound	T gene expression induction (T gene; ES-D3, 5 μM)	toxicity (in words) (ES-CCE cells)	activation of the Wnt/beta-catenin pathway (luminescence signal) (Wnt/beta-catenin pathway [1]; ES-D3, 5 μM)	viability reduced by (ES-D3 cells; ES-D3, 1 μM) [%]	viability reduced by (ES-D3 cells; ES-D3, 2.5 μM) [%]	viability reduced by (ES-D3 cells; ES-D3, 5 μM) [%]	viability reduced by (ES-D3 cells; ES-D3, 7.5 μM) [%]	viability reduced by (ES-D3 cells; ES-D3, 10 μM) [%]	IC50 (ES-D3 cells; Mus musculus, 72 h) [nM]	activation of the Wnt/beta-catenin pathway (luminescence signal) (Wnt/beta-catenin pathway [2]; 5 μM)	saturation of the concentration-response curve, Brachyury-positive cells (Brachyury; ES-D3, three day treatment) [%]	IC50 (ES-D3 cells) [nM]	other results
Cn1cc(C2=C(c3ccc(Cl)cc3Cl)C(=O)NC2=O)c2ccccc21 [SB-216763]	up to 300 fold	smallest reduction of the viability	significantly increased compared to control cells but not to Wnt3a-incubated cells	1.7	29.8	55.6	56.1	57.2	5700	comparable to that of negative or positive controls			cells positive for Oct3/4 (Oct3/4; ES-D3, 5 μM): all cells were positive for Oct3/4; cells double-positive for Brachyury and Oct3/4 (Brachyury; [3]): ~ 3%
Cc1c[nH]c(-c2cnc(NCCNc3ccc(C#N)cn3)nc2-c2ccc(Cl)cc2Cl)n1 [CHIR-99021]	up to 2,500 fold	smallest reduction of the viability	significant activation of the Wnt/beta-catenin pathway		24.7	56.3	61.9	69.2	4900	only a significant increase at 72 h	60		selectivity as GSK3 inhibitor (GSK3): most selective GSK3 inhibitor; Brachyury-positive cells (Brachyury; [3]): around 43%; EC50 (Brachyury; Mus musculus, 72 h): 3190 nM
O=C1Nc2cc(Br)ccc2/C1=C1/Nc2ccccc2/C1=N\O [BIO]		strongly cytotoxic		83.5								480	cells positive for Oct3/4 (Oct3/4; ES-D3, 0.5 μM): almost all cells were positive for Oct3/4; Brachyury-positive cells (Brachyury; ES-D3, 0.5 μM, three day treatment): almost no Brachyury-positive cells; T gene expression induction (T gene; ES-D3, 0.5 μM): up to 300 fold; activation of the Wnt/beta-catenin pathway (luminescence signal) (Wnt/beta-catenin pathway [1]; ES-D3, 0.5 μM): did not result in a robust activation of the Wnt/beta-catenin pathway above controls; viability reduced by (ES-D3 cells; ES-D3, 0.25 μM): 25.7%; viability reduced by (ES-D3 cells; ES-D3, 0.5 μM): 58.7%; viability reduced by (ES-D3 cells; ES-D3, 0.75 μM): 68.7%; activation of the Wnt/beta-catenin pathway (luminescence signal) (Wnt/beta-catenin pathway [2]; 0.5 μM): comparable to that of negative or positive controls
CHIR-98014				52							50	1100	Brachyury-positive cells (Brachyury; ES-D3, 1 μM, three day treatment): ~50%; EC50 (Brachyury; ES-D3, three day treatment, counting of stained cells): 320 nM; T gene expression induction (T gene; ES-D3, 1 μM): up to 2,500 fold; activation of the Wnt/beta-catenin pathway (luminescence signal) (Wnt/beta-catenin pathway [1]; ES-D3, 1 μM): significant activation of the Wnt/beta-catenin pathway; activation of the Wnt/beta-catenin pathway (luminescence signal) (Wnt/beta-catenin pathway [2]; 1 μM): significant increase of Wnt-signaling after 48 and 72 h
